Data reported in patent US10703757B2, “Compounds and methods for CDK8 modulation and indications therefor” (Plexxikon Inc., priority 2016, dated 2020).

Legend:
[1] = system: CDK8 (phosphorylation of STAT1 at serine 727 in A549 cells); experiment: Cell based Phospho-STAT1 assay (IFNγ-stimulated A549 cells, AlphaLISA); conditions: Homo sapiens, A549, A549 cells, phospho-STAT1 after IFNγ stimulation
Procedure, shortened: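 A549 cells given serial compound dilutions for 1 h at 37 °C, then stimulated with IFNγ at 10 ng/mL final for 30 min. Lysate STAT1 Ser727 phosphorylation measured by AlphaLISA; % inhibition vs stimulated/unstimulated DMSO controls, IC50 by nonlinear regression.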

[2] = system: CDK8 (TCF/LEF luciferase reporter in HCT116 cells); experiment: Cell based TCF/LEF reporter assay (HCT116+TCF/LEF luciferase); conditions: Homo sapiens, HCT-116, 24 h
Procedure, shortened: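 Luciferase readout was corrected for viability (CellTiter-Fluor) and scaled between DMSO high and 10 uM CCT251545 low controls, giving IC50 by nonlinear regression. Compounds, serially diluted, were incubated 24 h at 37 °C on HCT116 clones stably expressing a TCF/LEF-driven luciferase reporter.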

Row | IC50 [1] [nM] | IC50 [2] [nM] | SMILES
1 | 0.1 to 100 | 0.1 to 100 | CCn1cc(-c2ccc(-c3cnn4cccc(C#CC(C)(C)O)c34)cc2)cn1 [Compound P-0232, 4-(3-(4-(1-ethyl-1H-pyrazol-4-yl)phenyl)pyrazolo[1,5-a]pyridin-4-yl)-2-methylbut-3-yn-2-ol]
2 | 1000 to 10000 | 100 to 1000 | Cc1ccncc1-c1ccc(-c2cnn3cccc(C#CC(C)(C)O)c23)cc1 [Compound P-0233, 2-methyl-4-(3-(4-(4-methylpyridin-3-yl)phenyl)pyrazolo[1,5-a]pyridin-4-yl)but-3-yl-2-ol]
3 | 100 to 1000 | 0.1 to 100 | Cc1cc(-c2ccc(-c3cnn4cccc(C#CC(C)(C)O)c34)cc2)n[nH]1 [Compound P-0234, 2-methyl-4-(3-(4-(5-methyl-1H-pyrazol-3-yl)phenyl)pyrazolo[1,5-a]pyridin-4-yl)but-3-yl-2-ol]
4 | 100 to 1000 | 100 to 1000 | Cc1cc(C#N)cc(-c2ccc(-c3cnn4cccc(C#CC(C)(C)O)c34)cc2)c1 [Compound P-0235, 4′-(4-(3-hydroxy-3-methylbut-1-yn-1-yl)pyrazolo[1,5-a]pyridin-3-yl)-5-methyl-[1,1′-biphenyl]-3-carbonitrile]
5 | 0.1 to 100 | 0.1 to 100 | CC(C)(O)C#Cc1cccn2ncc(-c3ccc(-c4cccnc4)cc3)c12 [Compound P-0237, 2-methyl-4-(3-(4-(pyridin-3-yl)phenyl)pyrazolo[1,5-a]pyridin-4-yl)but-3-yn-2-ol]
6 | 0.1 to 100 | 0.1 to 100 | Cn1cc(C#Cc2cnc3cccc(N4CCC5(CC4)CC(=O)NC5=O)n23)cn1 [Compound P-0238, 8-(3-((1-methyl-1H-pyrazol-4-yl)ethynyl)imidazo[1,2-a]pyridin-5-yl)-2,8-diazaspiro[4.5]decane-1,3-dione]
7 | 1000 to 10000 | 1000 to 10000 | CC(=O)C1CCN(c2cccc3ncc(C#Cc4cnn(C)c4)n23)CC1 [Compound P-0240, 1-(1-(3-((1-methyl-1H-pyrazol-4-yl)ethynyl)imidazo[1,2-a]pyridin-5-yl)piperidin-4-yl)ethan-1-one]
8 | 100 to 1000 | 100 to 1000 | Cn1cc(C#Cc2cnc3cccc(N4CCC(C(N)=O)C4)n23)cn1 (stereo not drawn) [Compound P-0241, 1-(3-((1-methyl-1H-pyrazol-4-yl)ethynyl)imidazo[1,2-a]pyridin-5-yl)pyrrolidine-3-carboxamide]
9 | 0.1 to 100 | 0.1 to 100 | COc1ccc2cc(-c3cnn4cccc(C5=CCC(C#N)CC5)c34)ccc2n1 (stereo not drawn) [Compound P-0242, 4-(3-(2-methoxyquinolin-6-yl)pyrazolo[1,5-a]pyridin-4-yl)cyclohex-3-ene-1-carbonitrile]
10 | 100 to 1000 | 100 to 1000 | N#CC1CC=C(c2c(-c3ccc4c(c3)CNC4=O)cnc3[nH]ccc23)CC1 (stereo not drawn) [Compound P-0244, 4-(5-(1-oxoisoindolin-5-yl)-1H-pyrrolo[2,3-b]pyridin-4-yl)cyclohex-3-ene-1-carbonitrile]
11 | 0.1 to 100 | 100 to 1000 | Cn1cc(-c2ccc(-c3cnn4cccc(C#CCOCCO)c34)cc2)cn1 [Compound P-0245, 2-((3-(3-(4-(1-methyl-1H-pyrazol-4-yl)phenyl)pyrazolo[1,5-a]pyridin-4-yl)prop-2-yn-1-yl)oxy)ethan-1-ol]
12 | 0.1 to 100 | 100 to 1000 | Cn1cc(-c2ccc(-c3cnn4cccc(C#C[C@@](C)(O)c5ccccc5)c34)cc2)cn1 [Compound P-0246, (S)-4-(3-(4-(1-methyl-1H-pyrazol-4-yl)phenyl)pyrazolo[1,5-a]pyridin-4-yl)-2-phenylbut-3-yn-2-ol]
13 | 0.1 to 100 | 0.1 to 100 | Cn1cc(-c2ccc(-c3cnn4ccnc(C5CCC(C(N)=O)CC5)c34)cc2)cn1 (stereo not drawn) [Compound P-0247, 4-(3-(4-(1-methyl-1H-pyrazol-4-yl)phenyl)pyrazolo[1,5-a]pyrazin-4-yl)cyclohexane-1-carboxamide]
14 | 0.1 to 100 | 0.1 to 100 | Cc1ccn2ncc(-c3ccc(-c4cnn(C)c4)cc3)c2c1C1=CCC(C#N)CC1 (stereo not drawn) [Compound P-0250, 4-[5-methyl-3-[4-(1-methylpyrazol-4-yl)phenyl]pyrazolo[1,5-a]pyridin-4-yl]cyclohex-3-ene-1-carbonitrile]
15 | 1000 to 10000 | 1000 to 10000 | N#CC1CCN(c2cccn3ncc(-c4cccc(OCC(F)(F)F)c4)c23)CC1 [Compound P-0251, 1-(3-(3-(2,2,2-trifluoro-ethoxy)phenyl)pyrazolo[1,5-a]pyridin-4-yl)piperidine-4-carbonitrile]
16 | 1000 to 10000 | 1000 to 10000 | N#CC1CCN(c2cccn3ncc(-c4cccc(OCc5ccccc5)c4)c23)CC1 [Compound P-0252, 1-(3-(3-(benzyloxy)phenyl)pyrazolo[1,5-a]pyridin-4-yl)piperidine-4-carbonitrile]

Row | IC50 [1] [nM] | IC50 [2] [nM] | SMILES
17 | 100 to 1000 | 100 to 1000 | Cc1cc(C)n(-c2ccc(-c3cnn4cccc(N5CCC(C#N)CC5)c34)cc2)n1 [Compound P-0253, 1-(3-(4-(3,5-dimethyl-1H-pyrazol-1-yl)phenyl)pyrazolo[1,5-a]pyridin-4-yl)piperidine-4-carbonitrile]
18 | 100 to 1000 | 100 to 1000 | CC(C)(C)C(=O)Nc1ccc(-c2cnn3cccc(N4CCC(C#N)CC4)c23)cc1 [Compound P-0254, N-(4-(4-(4-cyanopiperidin-1-yl)pyrazolo[1,5-a]pyridin-3-yl)phenyl)pivalamide]
19 | 1000 to 10000 | 1000 to 10000 | N#CC1CCN(c2cccn3ncc(-c4ccc(S(=O)(=O)N5CCOCC5)cc4)c23)CC1 [Compound P-0255, 1-(3-(4-(morpholino-sulfonyl)phenyl)pyrazolo[1,5-a]pyridin-4-yl)piperidine-4-carbonitrile]
20 | 100 to 1000 | 100 to 1000 | N#CC1CCN(c2cccn3ncc(-c4ccc(C(=O)N5CCCC5)cc4)c23)CC1 [Compound P-0257, 1-(3-(4-(pyrrolidine-1-carbonyl)phenyl)pyrazolo[1,5-a]pyridin-4-yl)piperidine-4-carbonitrile]
21 | 100 to 1000 | 100 to 1000 | N#CC1CCN(c2cccn3ncc(-c4ccc(C(=O)N5CCOCC5)cc4)c23)CC1 [Compound P-0258, 1-(3-(4-(morpholine-4-carbonyl)phenyl)pyrazolo[1,5-a]pyridin-4-yl)piperidine-4-carbonitrile]
22 | 100 to 1000 | 100 to 1000 | N#CC1CCN(c2cccn3ncc(-c4ccc(NC(=O)OCc5ccccc5)cc4)c23)CC1 [Compound P-0259, benzyl (4-(4-(4-cyanopiperidin-1-yl)pyrazolo[1,5-a]pyridin-3-yl)phenyl)carbamate]
23 | 100 to 1000 | 100 to 1000 | N#CC1CCN(c2cccn3ncc(-c4ccc(OCCCN5CCCCC5)cc4)c23)CC1 [Compound P-0260, 1-(3-(4-(3-(piperidin-1-yl)propoxy)phenyl)pyrazolo[1,5-a]pyridin-4-yl)piperidine-4-carbonitrile]
24 | 0.1 to 100 | 0.1 to 100 | N#CC1CCN(c2cccn3ncc(-c4ccc(OCCN5CCOCC5)cc4)c23)CC1 [Compound P-0261, 1-(3-(4-(2-morpholino-ethoxy)phenyl)pyrazolo[1,5-a]pyridin-4-yl)piperidine-4-carbonitrile]
25 | 0.1 to 100 | 0.1 to 100 | N#CC1CCN(c2cccn3ncc(-c4ccc(OCC(O)CN5CCOCC5)cc4)c23)CC1 (stereo not drawn) [Compound P-0262, 1-(3-(4-(2-hydroxy-3-morpholino-propoxy)phenyl)pyrazolo[1,5-a]pyridin-4-yl)piperidine-4-carbonitrile]
26 | 0.1 to 100 | 0.1 to 100 | N#CC1CCN(c2cccn3ncc(-c4ccc(OCC(O)CN5CCCCC5)cc4)c23)CC1 (stereo not drawn) [Compound P-0263, 1-(3-(4-(2-hydroxy-3-(piperidin-1-yl)propoxy)phenyl)pyrazolo[1,5-a]pyridin-4-yl)piperidine-4-carbonitrile]
27 | 0.1 to 100 | 0.1 to 100 | N#CC1CCN(c2cccn3ncc(-c4ccc(OCC5CCCCO5)cc4)c23)CC1 (stereo not drawn) [Compound P-0264, 1-(3-(4-((tetrahydro-2H-pyran-2-yl)methoxy)phenyl)pyrazolo[1,5-a]pyridin-4-yl)piperidine-4-carbonitrile]
28 | 1000 to 10000 | 1000 to 10000 | N#CC1CCN(c2cccn3ncc(-c4ccc(OC5CCCCC5)cc4)c23)CC1 [Compound P-0265, 1-(3-(4-(cyclo-hexyloxy)phenyl)pyrazolo[1,5-a]pyridin-4-yl)piperidine-4-carbonitrile]
29 | 1000 to 10000 | 1000 to 10000 | CC(C)(C)COc1ccc(-c2cnn3cccc(N4CCC(C#N)CC4)c23)cc1 [Compound P-0266, 1-(3-(4-(neopentyloxy)phenyl)pyrazolo[1,5-a]pyridin-4-yl)piperidine-4-carbonitrile]
30 | 100 to 1000 | 100 to 1000 | N#CC1CCN(c2cccn3ncc(-c4ccc(OCc5ccccc5)cc4)c23)CC1 [Compound P-0267, 1-(3-(4-(benzyloxy)phenyl)pyrazolo[1,5-a]pyridin-4-yl)piperidine-4-carbonitrile]
31 | 0.1 to 100 | 0.1 to 100 | CNC(=O)c1ccc2cc(-c3cnc4[nH]ccc4c3C3=CCC(C#N)CC3)ccc2c1 (stereo not drawn) [Compound P-0268, 6-(4-(4-cyanocyclohex-1-en-1-yl)-1H-pyrrolo[2,3-b]pyridin-5-yl)-N-methyl-2-naphthamide]
32 | 100 to 1000 | 100 to 1000 | CNC(=O)c1ccc2cc(-c3cnc4[nH]ccc4c3N3CCC(F)(C#N)CC3)ccc2c1 [Compound P-0269, 6-(4-(4-cyano-4-fluoropiperidin-1-yl)-1H-pyrrolo[2,3-b]pyridin-5-yl)-N-methyl-2-naphthamide]

Row | SMILES | IC50 [1] [nM] | IC50 [2] [nM]
33 | Cn1cc(-c2ccc(-c3cnn4cccc(N5C6CCC5CC(C#N)C6)c34)cc2)cn1 (stereo not drawn) [Compound P-0248, 8-(3-(4-(1-methyl-1H-pyrazol-4-yl)phenyl)pyrazolo[1,5-a]pyridin-4-yl)-8-azabicyclo[3.2.1]octane-3-carbonitrile] | 0.1 to 100 | 0.1 to 100
